Where “and” joins values, the source holds several entries; their conditions need not be identical. Equal values may be shown once.
Tests used:
Haemonchus contortus = Haemonchus contortus L3 infection of control and MPA-treated NSG mice, worm and egg recovery; assay type: in vivo
[1] = test system: Strongyloides stercoralis; test: Strongyloides stercoralis L3 infection of NSG mice with or without MPA, treatment, counts of adult worms, L1 and L3; conditions: 6 weeks post-injection; for Adult S. stercoralis recovery counts (individual mice) / Adult S. stercoralis recovery counts, mean / L1 S. stercoralis recovery counts (individual mice) / L1 S. stercoralis recovery counts, mean / L3 S. stercoralis recovery counts (individual mice) / L3 S. stercoralis recovery counts, mean: 5000 L3 s.c.
Text: NSG mice infected by subcutaneous injection with 5000 S. stercoralis L3 larvae, either with or without MPA. […] Adult worms, L1 larvae, or L3 larvae were counted in the mice at 6 weeks post-injection.

Dirofilaria immitis = test: D. immitis L3 infection of NSG mice (FR3 Missouri strain or strain not stated), treatment, recovery and count of worms at necropsy; assay type: in vivo; conditions: for % Rec / Survival / % Rec (percent of the original 50 Di recovered) / Survival (number of Di recovered from the mouse): individual mouse; for % Rec (percent of the original 50 Di recovered) / Survival (number of Di recovered from the mouse): 1 mg/kg
[2] = test system: Dirofilaria immitis (Merial worms, UC strain); test: D. immitis L3 infection of NSG mice with Merial worms / UC strain, treatment, recovery and count of worms; assay type: in vivo
[3] = NSG mice, 50 Di L3, 1x (1 mg/kg) at Day 30, recovery Days 41 to 43
[4] = NSG mice, 50 Di L3, 2x (1 mg/kg) at Days 1 and 30, recovery Days 41 to 43
[5] = NSG mice, 50 Di L3, 3x (1 mg/kg) at Days 1, 15, and 30, recovery Days 41 to 43
[6] = NSG mice, 50 Di L3 Day 0, 1 mg/kg EMO or 8800 on Days 30 and 60, recovery Days 83 and 84
[7] = NSG mice, 50 Di L3 Day 0, 1 mg/kg on Day 30, recovery Days 41 to 43
[8] = Table 9, NSG mice, 50 Di L3, 1 mg/kg on Days 1, 15, and 30, recovery Days 41 to 43
[9] = Table 9, group mean, NSG mice, 50 Di L3, 1 mg/kg on Days 1, 15, and 30, recovery Days 41 to 43
[10] = Table 11, NSG mice, 50 Di L3, 5 mg/kg on Days 1, 15, and 30, recovery Days 41 to 42
[11] = Table 11, group mean, NSG mice, 50 Di L3, 5 mg/kg on Days 1, 15, and 30, recovery Days 41 to 42
[12] = group mean, NSG mice, 50 Di L3, 1x (1 mg/kg) at Day 30, recovery Days 41 to 43
[13] = group mean, NSG mice, 50 Di L3 Day 0, 1 mg/kg EMO or 8800 on Days 30 and 60, recovery Days 83 and 84
[14] = group mean, NSG mice, 50 Di L3 Day 0, 1 mg/kg on Day 30, recovery Days 41 to 43
[15] = EMO Control: 2.5 mg/kg EMO days 1, 15, 30, without MPA
[16] = EMO/MPA: 2.5 mg/kg EMO days 1, 15, 30, with MPA (hyperinfection)
[17] = EMO 1 mg/kg Days 1, 15, 30, 50 Di L3 (UC Strain) per NSG mouse, recovery Days 41 to 43, group mean
[18] = EMO 1 mg/kg Days 1, 15, 30, 50 Di L3 (UC Strain) per NSG mouse, recovery Days 41 to 43, individual mice
[19] = group mean, NSG mice, 50 Di L3 Merial worms, 1 mg/kg on Days 1, 15, and 30, recovery Days 41 to 43
[20] = group mean, NSG mice, 50 Di L3 Merial worms, high dose 5 mg/kg on Days 1, 15, and 30, recovery Days 41 to 43
[21] = group mean, NSG mice, 50 Di L3 UC strain, High Dose 5 mg/kg on Days 1, 15, and 30, recovery Days 41 and 42
[22] = individual mouse, NSG mice, 50 Di L3 Merial worms, 1 mg/kg on Days 1, 15, and 30, recovery Days 41 to 43, 1 mg/kg
[23] = individual mouse, NSG mice, 50 Di L3 Merial worms, high dose 5 mg/kg on Days 1, 15, and 30, recovery Days 41 to 43, 5 mg/kg
[24] = individual mouse, NSG mice, 50 Di L3 UC strain, High Dose 5 mg/kg on Days 1, 15, and 30, recovery Days 41 and 42, 5 mg/kg

SMILES: CC(=O)OCC(=O)[C@@]1(O)CC[C@H]2[C@@H]3C[C@H](C)C4=CC(=O)C=C[C@]4(C)[C@H]3[C@@H](O)C[C@@]21C [MPA, methylprednisolone acetate]
- Hc Recovery, Average (Haemonchus contortus; MPA-treated NSG mice, 500 Hc L3 oral gavage, 14 Days PI): 10.5
- Hc Recovery, Average (Haemonchus contortus; MPA-treated NSG mice, 500 Hc L3 oral gavage, 21 Days PI): 2
- Hc Recovery, Average (Haemonchus contortus; MPA-treated NSG mice, 500 Hc L3 oral gavage, 28 Days PI): 0
- Hc Recovery, Average (Haemonchus contortus; MPA-treated NSG mice, 500 Hc L3 oral gavage, 56 Days PI): 0
- Hc Recovery, Average (Haemonchus contortus; MPA-treated NSG mice, 500 Hc L3 oral gavage, 7 days PI): 19.5
- Hc Recovery (individual mice) (Haemonchus contortus; MPA-treated NSG mice, 1000 Hc L3 oral gavage, 14 Days PI): 15 and 1
- Hc Recovery (individual mice) (Haemonchus contortus; MPA-treated NSG mice, 1000 Hc L3 oral gavage, 21 Days PI): 15 and 20
- Hc Recovery (individual mice) (Haemonchus contortus; MPA-treated NSG mice, 1000 Hc L3 oral gavage, 28 Days PI): 0 and 1
- Hc Recovery (individual mice) (Haemonchus contortus; MPA-treated NSG mice, 1000 Hc L3 oral gavage, 56 Days PI): 0
- Hc Recovery, Average (Haemonchus contortus; MPA-treated NSG mice, 1000 Hc L3 oral gavage, 7 days PI): 36
- # Eggs Found (Haemonchus contortus; in vivo): 2
- Hc Recovery (individual mice) (Haemonchus contortus; in vivo, po): 19 and 2 and 0 and 36 and 3 and 24 and 48
- Adult S. stercoralis recovery counts (individual mice) ([1]; MPA only (hyperinfection)): 888 and 235 and 34 and 437 and 581 and 447
- Adult S. stercoralis recovery counts, mean ([1]; MPA only (hyperinfection)): 437
- L1 S. stercoralis recovery counts (individual mice) ([1]; MPA only (hyperinfection)): 86 and 24 and 8456 and 9181 and 3464 and 670
- L1 S. stercoralis recovery counts, mean ([1]; MPA only (hyperinfection)): 3647
- L3 S. stercoralis recovery counts (individual mice) ([1]; MPA only (hyperinfection)): 275 and 31 and 2760 and 1766 and 632 and 1015
- L3 S. stercoralis recovery counts, mean ([1]; MPA only (hyperinfection)): 1080

SMILES: CC(C)C[C@H]1C(=O)O[C@H](Cc2ccc(N3CCOCC3)cc2)C(=O)N(C)[C@@H](CC(C)C)C(=O)O[C@H](C)C(=O)N(C)[C@@H](CC(C)C)C(=O)O[C@H](Cc2ccc(N3CCOCC3)cc2)C(=O)N(C)[C@@H](CC(C)C)C(=O)O[C@H](C)C(=O)N1C [EMO, emodepside]
- HW parasite load (normalized percent larva recovery, FIG. 2) (Dirofilaria immitis; NSG mice dosed orally with 1 mg/kg at Days 1, 15, and 30 post-infection, day 42/6 weeks): significantly reduced HW parasite load
- % Red (Dirofilaria immitis; [3]): 0%
- % Red (Dirofilaria immitis; [4]): 15%
- % Red (Dirofilaria immitis; [5]): 50%
- % Red (Dirofilaria immitis; [6]): 86%
- % Red (percent reduction in percent of Di recovered compared to control) (Dirofilaria immitis; [7]): 30%
- % Red (Dirofilaria immitis; [8]): 33%
- Mean % Rec (Dirofilaria immitis; [9]): 22%
- Mean Survival (Dirofilaria immitis; [9]): 11
- % Rec (Dirofilaria immitis; [8]): 26% and 24% (2×) and 16% (2×) and 20% and 22%
- Survival (Dirofilaria immitis; [8]): 13 and 12 (2×) and 8 (2×) and 10 and 11
- % Red (Dirofilaria immitis; [10]): 0%
- Mean % Rec (Dirofilaria immitis; [11]): 26%
- Mean Survival (Dirofilaria immitis; [11]): 13
- % Rec (Dirofilaria immitis; [10]): 22% (2×) and 28% and 36% and 34% and 14%
- Survival (Dirofilaria immitis; [10]): 11 (2×) and 14 and 18 and 17 and 7
- Mean % Rec (Dirofilaria immitis; [12]): 39%
- Mean Survival (Dirofilaria immitis; [12]): 19
- Mean % Rec (Dirofilaria immitis; group mean, NSG mice, 50 Di L3, 2x (1 mg/kg) at Days 1 and 30, recovery Days 41 to 43): 29%
- Mean % Rec (Dirofilaria immitis; group mean, NSG mice, 50 Di L3, 3x (1 mg/kg) at Days 1, 15, and 30, recovery Days 41 to 43): 17%
- Mean % Rec (Dirofilaria immitis; [13]): 2%
- Mean Survival (Dirofilaria immitis; [13]): 1
- Mean % Rec (Dirofilaria immitis; [14]): 28%
- Mean Survival (Dirofilaria immitis; [14]): 14
- Mean Survival (Dirofilaria immitis; in vivo): 14 and 9
- % Rec (Dirofilaria immitis; [3]): 36% and 28% (2×) and 46% (2×) and 42% and 44%
- Survival (Dirofilaria immitis; [3]): 18 and 14 (2×) and 23 (2×) and 21 and 22
- % Rec (Dirofilaria immitis; [4]): 28% and 26% (3×) and 30% and 42% and 22%
- Survival (Dirofilaria immitis; [4]): 14 and 13 (3×) and 15 and 21 and 11
- % Rec (Dirofilaria immitis; [5]): 28% (2×) and 14% and 22% and 4% and 6% and 20%
- Survival (Dirofilaria immitis; [5]): 14 (2×) and 7 and 11 and 2 and 3 and 10
- % Rec (percent of the original 50 Di recovered) (Dirofilaria immitis; [6]): 2% (3×) and 0% (3×) and 6% (2×)
- Survival (number of Di recovered from the mouse) (Dirofilaria immitis; [6]): 1 (3×) and 0 (3×) and 3 (2×)
- % Rec (percent of the original 50 Di recovered) (Dirofilaria immitis; [7]): 24% and 30% (2×) and 32% and 28% and 26%
- Survival (number of Di recovered from the mouse) (Dirofilaria immitis; [7]): 12 and 15 (2×) and 16 and 14 and 13
- Adult S. stercoralis recovery counts (individual mice) [1, 15]: 0 (4×) and 1
- Adult S. stercoralis recovery counts, mean [1, 15]: 0.2
- L1 S. stercoralis recovery counts (individual mice) [1, 15]: 0
- L1 S. stercoralis recovery counts, mean [1, 15]: 0
- L3 S. stercoralis recovery counts (individual mice) [1, 15]: 5 (2×) and 8 and 0 and 1
- L3 S. stercoralis recovery counts, mean [1, 15]: 4
- Adult S. stercoralis recovery counts (individual mice) [1, 16]: 0
- Adult S. stercoralis recovery counts, mean [1, 16]: 0
- L1 S. stercoralis recovery counts (individual mice) [1, 16]: 0
- L1 S. stercoralis recovery counts, mean [1, 16]: 0
- L3 S. stercoralis recovery counts (individual mice) [1, 16]: 4 and 123 and 228 and 102 and 130 and 39 and 18
- L3 S. stercoralis recovery counts, mean [1, 16]: 92
- Circulating L3 ([1]; NSG mice, 5000 S. stercoralis L3 SC, with or without MPA, 2.5 mg/kg on days 1, 15, and 30): reduced the circulating L3
- % Rec, Mean [2, 17]: 24%
- Survival, Mean [2, 17]: 12
- % Rec [2, 18]: 18% (2×) and 26% and 30% (2×) and 12% and 36%
- Survival [2, 18]: 9 (2×) and 13 and 15 (2×) and 6 and 18
- % Red ([2]; NSG mice, 50 Di L3 Merial worms, 1 mg/kg on Days 1, 15, and 30, recovery Days 41 to 43): 35%
- % Red ([2]; NSG mice, 50 Di L3 Merial worms, high dose 5 mg/kg on Days 1, 15, and 30, recovery Days 41 to 43): 0%
- % Red ([2]; NSG mice, 50 Di L3 UC strain, High Dose 5 mg/kg on Days 1, 15, and 30, recovery Days 41 and 42): 47%
- Mean % Rec [2, 19]: 22%
- Mean Survival [2, 19]: 11
- Mean % Rec [2, 20]: 51%
- Mean Survival [2, 20]: 25
- Mean % Rec [2, 21]: 19%
- Mean Survival [2, 21]: 10
- % Red ([2]; in vivo): 37%
- % Rec [2, 22]: 14% and 26% and 24% (2×) and 16% and 20% and 32% and 22%
- Survival [2, 22]: 7 and 13 and 12 (2×) and 8 and 10 and 16 and 11
- % Rec [2, 23]: 52% and 68% and 48% (4×) and 56% and 36%
- Survival [2, 23]: 26 and 34 and 24 (4×) and 28 and 18
- % Rec [2, 24]: 20% (3×) and 22% (2×) and 18% and 14%
- Survival [2, 24]: 10 (3×) and 11 (2×) and 9 and 7

— patent publication US20200011856A1, “Method for Determining the Effectiveness of Treatment for the Prevention of Heartworm Disease” (priority 2017, published 2020)
